# Experimental data as given in publication PMC6450887, “Metabolic resistance of the D-peptide RD2 developed for direct elimination of amyloid-β oligomers” (Scientific Reports, 2019).
# Non-standard residues stand in square brackets, D forms with d. Residues, ends and D or L forms follow the SMILES beside them.
# Columns and labels:
# [1] = Stability in simulated gastric fluid (SGF), RP-HPLC; assay type: in vitro ADME; details: 37 °C, read-out: unmetabolized peptide remaining (remained stable)
# Experimental: The preparation of the media was performed as described before in Elfgen et al.[24]. Preparation of simulated gastric and intestinal fluid (SGF & SIF) was done according to the European Pharmacopoeia 7.0. Plasma samples were obtained from human blood of a volunteer donor. Pooled human liver microsomes were purchased from Sekisui XenoTech (Kansas City, USA; H1000, Lot: 0710494 and 1210270; H1500, Lot: 1210079), from Sigma-Aldrich (St. Louis, USA; M0692, Lot: SLBL1433V; M0567, Lot: SLBR2706V and SLBN7300V) and from Gibco, Thermo Fisher Scientific (Waltham, USA; HMMCPL, Lot: PL050; HMMCPM, Lot: PL039). Pooled Sprague Dawley rat liver microsomes were purchased from Sigma-Aldrich (St. Louis, USA; M9066, Lot: SLBN0707V) and from Gibco, Thermo Fisher Scientific (Waltham, USA; RTMCPL, Lot: RT053). Pooled cynomolgus monkey liver microsomes were purchased from Gibco, Thermo Fisher Scientific (Waltham, USA; MKMCPL, Lot: MK062) and from Sekisui XenoTech (Kansas City, USA; P2000, Lot: 1210334). […]
# (§1) For sample analysis from stability tests (see 2.3), mobile phases were acetonitrile (A) and water (B) each supplemented with 0.15% trifluoroacetic acid (TFA) (v/v). The samples were measured isocratically at 10% solvent A for 30 min. […] A chromatographic metabolite profile of L-RD2 in SIF was recorded with the same mobile phases but using a gradient from 0 to 30% solvent A in 30 min.
# [2] = Stability in simulated intestinal fluid (SIF), RP-HPLC; assay type: in vitro ADME; details: simulated intestinal fluid (SIF), 150 µM, 37 °C, 24 h, read-out: unmetabolized peptide remaining (remained stable)
# Experimental: (§2) The preparation of the media was performed as described before in Elfgen et al.[24]. Preparation of simulated gastric and intestinal fluid (SGF & SIF) was done according to the European Pharmacopoeia 7.0. Plasma samples were obtained from human blood of a volunteer donor. Pooled human liver microsomes were purchased from Sekisui XenoTech (Kansas City, USA; H1000, Lot: 0710494 and 1210270; H1500, Lot: 1210079), from Sigma-Aldrich (St. Louis, USA; M0692, Lot: SLBL1433V; M0567, Lot: SLBR2706V and SLBN7300V) and from Gibco, Thermo Fisher Scientific (Waltham, USA; HMMCPL, Lot: PL050; HMMCPM, Lot: PL039). Pooled Sprague Dawley rat liver microsomes were purchased from Sigma-Aldrich (St. Louis, USA; M9066, Lot: SLBN0707V) and from Gibco, Thermo Fisher Scientific (Waltham, USA; RTMCPL, Lot: RT053). Pooled cynomolgus monkey liver microsomes were purchased from Gibco, Thermo Fisher Scientific (Waltham, USA; MKMCPL, Lot: MK062) and from Sekisui XenoTech (Kansas City, USA; P2000, Lot: 1210334). The liver microsomes were diluted in an NADPH regenerating system (NRS).
# For the stability tests, 150 µM RD2 or L-RD2 was incubated in SGF, SIF, human plasma and human liver microsomes in triplicate at 37 °C with slight shaking for different time periods. To prevent microbial contaminations in long-term plasma incubations, 0.1% sodium azide was added to the solutions. Microsomal long-term activity was examined by incubating microsomes without peptide for up to 24 h and adding L-RD2 after 8 and 24 h. The ability to degrade L-RD2 served as indicator for their activity. For the comparison of RD2 metabolite profiles across species, 150 µM RD2 was incubated in human, rat and cynomolgus liver microsomes at 37 °C for 2 and 24 h. […]
# as §1
# [3] = Stability in human plasma, RP-HPLC; assay type: in vitro ADME; details: female, 37 °C
# Experimental: as §2
# For the stability tests, 150 µM RD2 or L-RD2 was incubated in SGF, SIF, human plasma and human liver microsomes in triplicate at 37 °C with slight shaking for different time periods. To prevent microbial contaminations in long-term plasma incubations, 0.1% sodium azide was added to the solutions. Microsomal long-term activity was examined by incubating microsomes without peptide for up to 24 h and adding L-RD2 after 8 and 24 h. The ability to degrade L-RD2 served as indicator for their activity. For the comparison of RD2 metabolite profiles across species, 150 µM RD2 was incubated in human, rat and cynomolgus liver microsomes at 37 °C for 2 and 24 h. The peptides were extracted by precipitating the proteins with trichloroacetic acid (TCA) and subsequent centrifugation, as described previously in Elfgen et al.[24]. Peptides immediately extracted from the media and precipitated media without peptides served as controls.
# For sample analysis from stability tests (see 2.3), mobile phases were acetonitrile (A) and water (B) each supplemented with 0.15% trifluoroacetic acid (TFA) (v/v). The samples were measured isocratically at 10% solvent A for 30 min. This run conditions allowed us to detect smallest chemical changes including the differentiation between the original compound and a deamidated version (Fig. S1). RD2 and L-RD2 can potentially be deamidated at two sites, the C-terminus and the asparagine at position seven. Peak areas of the unmetabolized peptides after different incubation times were normalized to the peptides’ peak areas after direct extraction from the media. […] A chromatographic metabolite profile of L-RD2 in SIF was recorded with the same mobile phases but using a gradient from 0 to 30% solvent A in 30 min.
# CYP2C9 = CYP2C9 (Homo sapiens, UniProt P11712); assay: CYP isoform inhibition in human liver microsomes (Cyprotex)
# Experimental: (§3) The experiments were performed by Cyprotex. […] The reactions were terminated by methanol and the generated metabolites were monitored by LC-MS/MS or fluorescence. […] All assays were performed sevenfold. […] For all other substrates, the termination plates were centrifuged at 2,500 rpm and 4 °C for 30 min and aliquots of the supernatants were combined and transferred to fresh 96-well plates. Formic acid in deionized water (final concentration 0.1%) containing internal standard was added to the supernatants prior to cassette analysis by LC-MS/MS. A decrease in the formation of the metabolite compared to the vehicle control was used to calculate the IC50 values.
# CYP2C19 = CYP2C19 (Homo sapiens, UniProt P33261); assay: as above
# CYP2C19, sequence (P33261 whole entry): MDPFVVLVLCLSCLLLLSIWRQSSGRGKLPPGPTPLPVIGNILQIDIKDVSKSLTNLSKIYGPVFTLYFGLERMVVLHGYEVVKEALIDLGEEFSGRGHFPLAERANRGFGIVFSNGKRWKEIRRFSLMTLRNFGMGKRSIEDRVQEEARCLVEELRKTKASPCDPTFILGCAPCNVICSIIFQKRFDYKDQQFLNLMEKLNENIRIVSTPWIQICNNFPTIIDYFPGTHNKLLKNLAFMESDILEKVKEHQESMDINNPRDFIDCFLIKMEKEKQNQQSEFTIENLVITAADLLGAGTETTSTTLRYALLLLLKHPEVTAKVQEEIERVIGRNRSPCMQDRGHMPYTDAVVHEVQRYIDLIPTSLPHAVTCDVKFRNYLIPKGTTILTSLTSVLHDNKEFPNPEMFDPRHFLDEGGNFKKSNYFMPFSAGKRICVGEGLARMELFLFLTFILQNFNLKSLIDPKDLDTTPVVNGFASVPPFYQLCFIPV
# Experimental: as §3
# CYP2C9, sequence (P11712 whole entry, canonical isoform): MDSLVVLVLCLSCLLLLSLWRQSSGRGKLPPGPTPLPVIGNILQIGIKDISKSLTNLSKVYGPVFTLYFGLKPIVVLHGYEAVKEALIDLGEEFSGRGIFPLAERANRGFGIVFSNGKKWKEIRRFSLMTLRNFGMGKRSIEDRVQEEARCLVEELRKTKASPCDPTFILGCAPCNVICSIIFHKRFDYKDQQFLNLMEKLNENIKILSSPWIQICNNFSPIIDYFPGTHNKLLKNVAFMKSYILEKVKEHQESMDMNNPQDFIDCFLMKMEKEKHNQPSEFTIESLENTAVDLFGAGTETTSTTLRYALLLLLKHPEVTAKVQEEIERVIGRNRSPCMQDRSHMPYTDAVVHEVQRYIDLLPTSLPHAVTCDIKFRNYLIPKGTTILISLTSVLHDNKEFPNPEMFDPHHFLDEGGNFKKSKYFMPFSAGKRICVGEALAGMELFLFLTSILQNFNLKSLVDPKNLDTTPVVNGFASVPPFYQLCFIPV
smiles,measurement,setting,value
"CC(C)C[C@@H](NC(=O)[C@H](NC(=O)[C@H]1CCCN1)[C@H](C)O)C(=O)N[C@H](Cc1c[nH]cn1)C(=O)N[C@@H](C(=O)N[C@H](Cc1c[nH]cn1)C(=O)N[C@H](CC(N)=O)C(=O)N[C@H](CCCNC(=N)N)C(=O)N[C@H](CCCNC(=N)N)C(=O)N[C@H](CCCNC(=N)N)C(=O)N[C@H](CCCNC(=N)N)C(=O)N[C@H](CCCNC(=N)N)C(N)=O)[C@H](C)O [RD2, ptlhthnrrrrr] (H-[dP][dT][dL][dH][dT][dH][dN][dR][dR][dR][dR][dR]-NH2)","remaining at 24 h, 150 µM",[1],≥ 97%
same,"remaining at 24 h, 150 µM",[2],≥ 97%
same,"metabolised at 480 h, 150 µM","[3]; 150 µM, within 20 days, read-out: peptide degraded",87 ± 3%
same,half-life at 150 µM,[3]; read-out: half-life (first order kinetics fit) (converted),216 h
same,inhibition of CYP2C9,CYP2C9; concentration range 0 to 25 µM,did not inhibit
same,inhibition at 0.25 µM,"CYP2C9; human, human liver microsomes",6.15%
same,inhibition at 1 µM,"CYP2C9; human, human liver microsomes",-0.871%
same,inhibition at 2.5 µM,"CYP2C9; human, human liver microsomes",0.607%
same,inhibition at 10 µM,"CYP2C9; human, human liver microsomes",-7.38%
same,inhibition at 25 µM,"CYP2C9; human, human liver microsomes",-26.8%
same,inhibition of CYP2C19,CYP2C19; concentration range 0 to 25 µM,did not inhibit
same,inhibition at 0.25 µM,"CYP2C19; human, human liver microsomes",7.64%
same,inhibition at 1 µM,"CYP2C19; human, human liver microsomes",2.47%
same,inhibition at 2.5 µM,"CYP2C19; human, human liver microsomes",2.54%
same,inhibition at 10 µM,"CYP2C19; human, human liver microsomes",-5.77%
same,inhibition at 25 µM,"CYP2C19; human, human liver microsomes",-45.5%
